# Reference: the supplement of paper PMC10307832
# Legend:
# Test in all cases: relative viability (nuclei count vs DMSO), 5 days (fraction); higher = more cells survive
# [1] = tested on: COR-L 105
# Procedure, shortened: (§1)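 Lung cancer cell lines, seeded in 1536-well plates, were treated the following day by pin tool with a single drug or with five library-drug doses (not always all listed) in √10 steps on top of a fixed anchor-drug dose. Cells were fixed and nuclei stained in one step after 5 days, and nuclei were counted. Relative viability is the nuclei count for treated wells divided by that for vehicle wells, reported as medians of duplicate plates.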
# [2] = tested on: NCI-H1755
# Procedure, shortened: as §1
# [3] = tested on: SK-MES-1
# Procedure, shortened: as §1
# [4] = tested on: NCI-H2023
# Procedure, shortened: as §1
# [5] = tested on: NCI-H1792
# Procedure, shortened: as §1
# [6] = tested on: COR-L23
# Procedure, shortened: as §1
# [7] = tested on: NCI-H2009
# Procedure, shortened: as §1
# [8] = tested on: NCI-H358
# Procedure, shortened: as §1
# [9] = tested on: PC-14
# Procedure, shortened: as §1
# [10] = tested on: LC-2-ad
# Procedure, shortened: as §1
# [11] = tested on: NCI-H2347
# Procedure, shortened: as §1
# [12] = tested on: EMC-BAC-2
# Procedure, shortened: as §1
# [13] = tested on: NCI-H23
# Procedure, shortened: as §1
# [14] = tested on: NCI-H1793
# Procedure, shortened: as §1
# [15] = tested on: NCI-H1437
# Procedure, shortened: as §1
# [16] = tested on: NCI-H650
# Procedure, shortened: as §1
# [17] = tested on: 201T
# Procedure, shortened: as §1
# [18] = tested on: HCC-366
# Procedure, shortened: as §1
# [19] = tested on: NCI-H1395
# Procedure, shortened: as §1
# [20] = tested on: NCI-H1915
# Procedure, shortened: as §1
# [21] = tested on: HCC-15
# Procedure, shortened: as §1
structure (smiles),measurement,setting,value
CCNC(=O)c1noc(-c2cc(C(C)C)c(O)cc2O)c1-c1ccc(CN2CCOCC2)cc1 [Luminespib] + CS(=O)(=O)CCNCc1ccc(-c2ccc3ncnc(Nc4ccc(OCc5cccc(F)c5)c(Cl)c4)c3c2)o1 [Lapatinib] (partner 2 µM),relative viability,[1]; first compound 0.002 µM,0.363
same,relative viability,[1]; first compound 0.006325 µM,0.354
same,relative viability,[1]; first compound 0.02 µM,0.283
same,relative viability,[1]; first compound 0.06325 µM,0.266
same,relative viability,[1]; first compound 0.2 µM,0.302
same,relative viability,[2]; first compound 0.002 µM,1.09
same,relative viability,[2]; first compound 0.006325 µM,0.97
same,relative viability,[2]; first compound 0.02 µM,1.07
same,relative viability,[2]; first compound 0.06325 µM,0.502
same,relative viability,[2]; first compound 0.2 µM,0.176
same,relative viability,[3]; first compound 0.002 µM,0.461
same,relative viability,[3]; first compound 0.006325 µM,0.459
same,relative viability,[3]; first compound 0.02 µM,0.407
same,relative viability,[3]; first compound 0.06325 µM,0.265
same,relative viability,[3]; first compound 0.2 µM,0.159
same,relative viability,[4]; first compound 0.002 µM,0.866
same,relative viability,[4]; first compound 0.006325 µM,0.787
same,relative viability,[4]; first compound 0.02 µM,0.124
same,relative viability,[4]; first compound 0.06325 µM,0.0702
same,relative viability,[4]; first compound 0.2 µM,0.0724
same,relative viability,[5]; first compound 0.002 µM,0.855
same,relative viability,[5]; first compound 0.006325 µM,0.778
same,relative viability,[5]; first compound 0.02 µM,0.717
same,relative viability,[5]; first compound 0.06325 µM,0.474
same,relative viability,[5]; first compound 0.2 µM,0.587
same,relative viability,[6]; first compound 0.002 µM,1.22
same,relative viability,[6]; first compound 0.006325 µM,0.945
same,relative viability,[6]; first compound 0.02 µM,0.924
same,relative viability,[6]; first compound 0.06325 µM,0.0749
same,relative viability,[6]; first compound 0.2 µM,0.0671
same,relative viability,[7]; first compound 0.002 µM,1.22
same,relative viability,[7]; first compound 0.006325 µM,0.814
same,relative viability,[7]; first compound 0.02 µM,0.63
same,relative viability,[7]; first compound 0.06325 µM,0.0682
same,relative viability,[7]; first compound 0.2 µM,0.0655
same,relative viability,[8]; first compound 0.002 µM,0.503
same,relative viability,[8]; first compound 0.006325 µM,0.446
same,relative viability,[8]; first compound 0.02 µM,0.354
same,relative viability,[8]; first compound 0.06325 µM,0.132
same,relative viability,[8]; first compound 0.2 µM,0.14
same,relative viability,[9]; first compound 0.002 µM,0.383
same,relative viability,[9]; first compound 0.006325 µM,0.267
same,relative viability,[9]; first compound 0.02 µM,0.247
same,relative viability,[9]; first compound 0.06325 µM,0.138
same,relative viability,[9]; first compound 0.2 µM,0.116
same,relative viability,[10]; first compound 0.002 µM,0.928
same,relative viability,[10]; first compound 0.006325 µM,0.954
same,relative viability,[10]; first compound 0.02 µM,0.659
same,relative viability,[10]; first compound 0.06325 µM,0.498
same,relative viability,[10]; first compound 0.2 µM,0.0905
same,relative viability,[11]; first compound 0.002 µM,0.941
same,relative viability,[11]; first compound 0.02 µM,0.876
same,relative viability,[11]; first compound 0.06325 µM,0.758
same,relative viability,[11]; first compound 0.2 µM,0.88
same,relative viability,[12]; first compound 0.002 µM,0.942
same,relative viability,[12]; first compound 0.006325 µM,0.84
same,relative viability,[12]; first compound 0.02 µM,0.597
same,relative viability,[12]; first compound 0.06325 µM,0.853
same,relative viability,[12]; first compound 0.2 µM,0.781
same,relative viability,[13]; first compound 0.002 µM,1.02
same,relative viability,[13]; first compound 0.006325 µM,1.1
same,relative viability,[13]; first compound 0.02 µM,0.587
same,relative viability,[13]; first compound 0.06325 µM,0.139
same,relative viability,[13]; first compound 0.2 µM,0.112
same,relative viability,[14]; first compound 0.002 µM,0.697
same,relative viability,[14]; first compound 0.006325 µM,0.832
same,relative viability,[14]; first compound 0.02 µM,0.223
same,relative viability,[14]; first compound 0.06325 µM,0.167
same,relative viability,[14]; first compound 0.2 µM,0.177
same,relative viability,[15]; first compound 0.002 µM,0.819
same,relative viability,[15]; first compound 0.006325 µM,0.748
same,relative viability,[15]; first compound 0.02 µM,0.703
same,relative viability,[15]; first compound 0.06325 µM,0.243
same,relative viability,[15]; first compound 0.2 µM,0.102
same,relative viability,[16]; first compound 0.002 µM,0.888
same,relative viability,[16]; first compound 0.006325 µM,0.838
same,relative viability,[16]; first compound 0.02 µM,0.507
same,relative viability,[16]; first compound 0.06325 µM,0.0944
same,relative viability,[16]; first compound 0.2 µM,0.149
same,relative viability,[17]; first compound 0.002 µM,1.03
same,relative viability,[17]; first compound 0.006325 µM,0.961
same,relative viability,[17]; first compound 0.02 µM,0.878
same,relative viability,[17]; first compound 0.06325 µM,1.02
same,relative viability,[17]; first compound 0.2 µM,0.986
same,relative viability,[18]; first compound 0.002 µM,1.07
same,relative viability,[18]; first compound 0.006325 µM,1.05
same,relative viability,[18]; first compound 0.02 µM,0.13
same,relative viability,[18]; first compound 0.06325 µM,0.0159
same,relative viability,[18]; first compound 0.2 µM,0.0157
same,relative viability,[19]; first compound 0.002 µM,1.04
same,relative viability,[19]; first compound 0.006325 µM,0.996
same,relative viability,[19]; first compound 0.02 µM,0.645
same,relative viability,[19]; first compound 0.06325 µM,0.336
same,relative viability,[19]; first compound 0.2 µM,0.347
same,relative viability,[20]; first compound 0.002 µM,0.943
same,relative viability,[20]; first compound 0.006325 µM,0.957
same,relative viability,[20]; first compound 0.02 µM,0.932
same,relative viability,[20]; first compound 0.06325 µM,0.99
same,relative viability,[20]; first compound 0.2 µM,0.284
same,relative viability,[21]; first compound 0.002 µM,0.812
same,relative viability,[21]; first compound 0.006325 µM,0.783
same,relative viability,[21]; first compound 0.02 µM,0.883
same,relative viability,[21]; first compound 0.06325 µM,0.308
same,relative viability,[21]; first compound 0.2 µM,0.136
